Experimental data as given in PubChem BioAssay (NCI).
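Where inhibition never reached the appropriate level, the endpoint shown equals the highest concentration tested. Otherwise, values were interpolated linearly from a five-concentration, 48-hour dose response in 96-well plates. GI50: concentration for 50% inhibition of growth. TGI marks complete inhibition of growth.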

Tests used:
Assay in all cases: growth of human tumour cells (NCI), 48 h
A498 renal = test system: A498 renal
SF-295 CNS = test system: SF-295 CNS
T-47D breast = test system: T-47D breast
TK-10 renal = test system: TK-10 renal
SK-MEL-28 melanoma = test system: SK-MEL-28 melanoma
SK-MEL-2 melanoma = test system: SK-MEL-2 melanoma
RPMI-8226 leukemia = test system: RPMI-8226 leukemia
NCI-H460 lung = test system: NCI-H460 lung
IGROV1 ovarian = test system: IGROV1 ovarian
DU-145 prostate = test system: DU-145 prostate

SMILES	GI50 (A498 renal) [µM]	TGI (A498 renal) [µM]	GI50 (SF-295 CNS) [µM]	TGI (SF-295 CNS) [µM]	GI50 (T-47D breast) [µM]	TGI (T-47D breast) [µM]	GI50 (TK-10 renal) [µM]	TGI (TK-10 renal) [µM]	GI50 (SK-MEL-28 melanoma) [µM]	TGI (SK-MEL-28 melanoma) [µM]	GI50 (SK-MEL-2 melanoma) [µM]	TGI (SK-MEL-2 melanoma) [µM]	GI50 (RPMI-8226 leukemia) [µM]	TGI (RPMI-8226 leukemia) [µM]	GI50 (NCI-H460 lung) [µM]	TGI (NCI-H460 lung) [µM]	GI50 (IGROV1 ovarian) [µM]	TGI (IGROV1 ovarian) [µM]	GI50 (DU-145 prostate) [µM]	TGI (DU-145 prostate) [µM]
C[C@@H]1CCc2ncc(F)cc2[C@H]2CCCN2c2ccn3ncc(c3n2)C(=O)N1	12.9	42.2	60.6	> 100	86.1	> 100	81.7	> 100	> 100	> 100	> 100	> 100	94.8	> 100	> 100	> 100	34.6	> 100	73.7	> 100
C[As](C)SC1OCC(O)C(O)C1O (stereo not given)	0.316	1.22	7.18		0.158	4.74	< 0.0258	0.19	0.387	3.33	0.58	2.53	0.0537	0.604	1.1	7.52	0.805	6.71	0.122	0.824
COc1ccc(/C=C/C(=O)c2cc3c(N)c(C(=O)Nc4ccc(OC)cc4)sc3nc2C)cc1	0.108	0.41	0.0645		0.403	> 50	2.85	> 50	0.4	> 50	0.359	> 50	0.348	> 34	0.155	0.484	0.551	> 50	0.184	7.78
Nn1c(-c2ccc(Cl)cc2)nc2c(-c3ccc(Cl)cc3)nc3ccc(Cl)cc3c2c1=O	36	75.7	13.3	34.4	9.3	67.2	22.4	58.4	49.6	> 100	25.2	> 100	4.14	26.3	3.36	> 100	4.01	32.8	4.96	> 100
O=c1[nH]cnc2n[nH]nc12		> 100		> 53.4	3.49	> 100		> 100		> 61.6		32		> 65.9		> 69.7		> 100	2.89	> 100
COCC(C(=O)OC1C/C=C/C=C/C(=O)OC(C(C)C(O)C(C)CCC(OC(=O)C(C)N(C)C)C(C)C(OC(C)=O)C(C)/C=C/N(C)C=O)C/C=C/C(OC)CC(C)C/C=C(\C)C(OC)CCC(C)C(O)C1C)N(C)C (stereo not given)	< 0.0001	< 0.0001	< 0.0001	< 0.0001	0.0479	> 1	0.0158	0.0877	< 0.0001	0.0358	< 0.0001	0.00774	< 0.0001	0.0077	< 0.0001	0.00436	< 0.0001	0.0144	< 0.0001	0.000156
COc1ccccc1C(=O)N(Cc1ccccc1)c1ccc(Cl)c(C(=O)OC(C)C)c1		> 100		> 100		78.7		> 100		> 100		40.5		29		> 100		> 100		> 100
Cc1ccc(OC(=O)N2C/C(=C\c3ccccc3)C(=O)/C(=C/c3ccccc3)C2)cc1		> 100		47.6		> 100		> 87.9		> 75		> 100		1.9		> 100		> 95.5		> 100
CNC(=O)OCc1nc(SC)n(C)c1COC(=O)NC		386		551		554		702		380		290		736		264		531		379
Cn1c(=O)c2c(nc(N/N=C/c3ccccc3C(=O)O)n2C)n(C)c1=O		> 100		> 100		> 100		> 100		> 100		> 100		> 100		> 100		> 100		> 100
CC1(C)N=C(N)N=C(N)N1c1cccc(CCc2ccccc2)c1	3.57	96.9	0.604	> 100	2.95	> 100	1.9	> 100	1.04	> 68.9	1.94	> 67.5	1.63	> 58.6	0.257	> 39.3	0.113	17.6	0.552	> 100
COc1cc2c3c(n(CCCNCCCNCCCN)c(=O)c2cc1OC)-c1cc2c(cc1C3=O)OCO2	> 100	> 100	40.6	> 100	> 100	> 100	> 100	> 100	> 100	> 100	> 100	> 100	> 100	> 100	> 100	> 100	> 100	> 100	> 100	> 100
O=C(O)c1ccccc1NCn1c(=S)sc2ccccc21		> 100		> 100		> 100		> 100		> 100		> 100		95.4		48.5		> 100		> 100
OCC(O)C(O)C(O)C(O)c1nnc2c(-c3ccccc3)nc3ccccc3n12 (stereo not given)	38.2	> 100	> 100	> 100	28.6	> 100	29.2	> 100	> 100	> 100	> 100	> 100	67.2	> 100	> 100	> 100	14.5	> 100	> 100	> 100
